# Test system: Human primary melanocytes
# Assay: Melanin synthesis on melanocyte cells in vitro (melanin content assay)
# Format: cell-based
# Details: 72 hrs treatment with actives in MGM media at the stated wt %; absorbance 405 nm
# Method: Experiments were carried out on melanocyte cells using the actives as shown in Table-3 using the procedure given below; • 1. Human primary melanocytes were seeded at a density of 5×10^4 per well into a 24 well plate with fresh melanocyte growth media (MGM). • 2. Post 24 hrs seeding, cells were treated with actives in fresh MGM media and incubated for 72 hrs at 5% CO2/37° C. incubator. • 3. After 72 h of incubation, melanin estimation was done. Melanin content estimation: Cell culture spent media was removed and cells were washed once with 200 μl of 1×PBS. […] Then 100 μl of this lysate was transferred to a fresh 384 well plate and absorbance was measured spectrophotometric at 405 nm with a micro plate reader.
row,Compound,Melanin synthesis (% of control)
1,"CCCCCCC(O)CCCCCCCCCCC(=O)O (stereo not drawn) [F, 12-hydroxystearic acid]",98 % of control
2,"CC(O)CN(CCN(CC(C)O)CC(C)O)CC(C)O (stereo not drawn) [D, tetrahydroxypropyl ethylenediamine]",91 % of control
3,"NC(=O)c1cccnc1 [E, niacinamide]",97 % of control

# Source: patent US20250152488A1, “SKIN BRIGHTENING COMPOSITION” (Conopco, Inc., d/b/a UNILEVER, priority 2022, published 2025)
